According to US8735360B2 (priority 2009, dated 2014):
Positions of bridges follow the written chain, without caps; N, C: chain ends. Residues, ends and D or L forms follow the SMILES beside them.

Assays:
GC-C [1] = molecular target: T1, GC-C (Homo sapiens, UniProt P25092); format: binding
GC-C [2] = molecular target: T1, GC-C; format: cell-based; conditions: for Ratio EC50 pH 8/EC50 pH 5: cGMP response in T84 cells; for pH sensitivity with regard to binding and/or activation of GC-C: pH 5 versus pH 8
[3] = test system: ligated duodenal loops in rats; format: in vivo, rat; conditions: 2.5 μg of peptide per loop
female CD-1 mice = format: in vivo; conditions: oral gavage, % distance travelled by charcoal front in small intestine
[4] = oral administration at therapeutic dose levels; cited from earlier work

T1 sequence (P25092 24-1073 limits assumed): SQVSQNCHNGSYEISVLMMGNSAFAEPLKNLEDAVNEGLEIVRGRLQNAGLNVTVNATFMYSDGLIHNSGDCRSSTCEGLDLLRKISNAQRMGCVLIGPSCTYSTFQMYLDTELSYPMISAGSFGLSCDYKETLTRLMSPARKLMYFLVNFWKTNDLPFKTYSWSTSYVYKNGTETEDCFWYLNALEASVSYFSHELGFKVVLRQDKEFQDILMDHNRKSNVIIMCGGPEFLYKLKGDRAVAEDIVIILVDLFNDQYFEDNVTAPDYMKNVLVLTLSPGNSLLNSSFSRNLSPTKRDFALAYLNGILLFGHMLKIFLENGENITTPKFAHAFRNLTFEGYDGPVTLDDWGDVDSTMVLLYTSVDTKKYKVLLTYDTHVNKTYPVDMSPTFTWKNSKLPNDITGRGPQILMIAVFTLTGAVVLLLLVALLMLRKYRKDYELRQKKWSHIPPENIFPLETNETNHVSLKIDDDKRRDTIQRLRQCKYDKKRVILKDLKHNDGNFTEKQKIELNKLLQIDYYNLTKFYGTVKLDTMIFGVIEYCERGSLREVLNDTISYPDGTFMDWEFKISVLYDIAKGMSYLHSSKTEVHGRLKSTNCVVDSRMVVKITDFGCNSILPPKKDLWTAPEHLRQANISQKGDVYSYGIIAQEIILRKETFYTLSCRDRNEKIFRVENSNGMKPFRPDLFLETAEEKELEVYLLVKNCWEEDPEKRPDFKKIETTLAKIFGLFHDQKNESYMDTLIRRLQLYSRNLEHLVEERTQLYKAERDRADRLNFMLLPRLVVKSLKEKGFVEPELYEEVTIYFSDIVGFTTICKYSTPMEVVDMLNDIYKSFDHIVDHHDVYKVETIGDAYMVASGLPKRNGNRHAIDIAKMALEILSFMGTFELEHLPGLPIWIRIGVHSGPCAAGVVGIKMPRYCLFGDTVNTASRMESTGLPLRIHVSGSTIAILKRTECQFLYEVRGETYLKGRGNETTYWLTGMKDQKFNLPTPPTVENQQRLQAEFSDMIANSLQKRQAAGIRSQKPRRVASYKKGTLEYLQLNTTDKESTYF

CC(C)C[C@@H]1NC(=O)[C@H](CCC(=O)O)NC(=O)[C@@H]2CSSC[C@@H]3NC(=O)[C@H](C)NC(=O)[C@@H]4CCCN4C(=O)[C@H](CC(N)=O)NC(=O)[C@H](CSSC[C@H](NC(=O)[C@H](CC(=O)O)NC(=O)[C@H](CC(=O)O)NC(=O)[C@@H](N)CC(=O)O)C(=O)N2)NC(=O)[C@H](CSSC[C@@H](C(=O)N[C@@H](Cc2ccc(O)cc2)C(=O)O)NC(=O)CNC(=O)[C@H]([C@@H](C)O)NC3=O)NC1=O [Peptide 17, DDDCCELCCNPACTGCY]
Ratio Ki pH 8/Ki pH 5 (GC-C [1]): 6.35 | Ratio EC50 pH 8/EC50 pH 5 (GC-C [2]): 386.2 | Rate of fluid accumulation [3]: 1.8 µL/min/cm | ED50 in the gastrointestinal transit assay (female CD-1 mice): 2.9 µg/kg

C[C@@H]1NC(=O)[C@@H]2CCCN2C(=O)[C@H](CC(N)=O)NC(=O)[C@@H]2CSSC[C@H](NC(=O)[C@H](CC(=O)O)NC(=O)[C@@H](N)CC(=O)O)C(=O)N[C@H]3CSSC[C@H](NC1=O)C(=O)N[C@@H]([C@@H](C)O)C(=O)NCC(=O)N[C@H](C(=O)N[C@@H](Cc1ccc(O)cc1)C(=O)O)CSSC[C@H](NC(=O)[C@H](Cc1ccc(O)cc1)NC(=O)[C@H](CCC(=O)O)NC3=O)C(=O)N2 [Peptide 4, DDCCEYCCNPACTGCY] (H-DDCCEYCCNPACTGCY-OH; disulfide 3-8, 4-12, 7-15 (inferred); N-terminus and C-terminus assumed)
Ratio Ki pH 8/Ki pH 5 (GC-C [1]): 5.27 | Ratio EC50 pH 8/EC50 pH 5 (GC-C [2]): 48.0 | Rate of HCO3- accumulation [3]: 80 neq/min/cm | Rate of fluid accumulation [3]: 2.0 µL/min/cm | ED50 in the gastrointestinal transit assay (female CD-1 mice): 6.3 µg/kg

C[C@@H]1NC(=O)[C@@H]2CCCN2C(=O)[C@H](CC(N)=O)NC(=O)[C@@H]2CSSC[C@H](N)C(=O)N[C@H]3CSSC[C@H](NC1=O)C(=O)N[C@@H]([C@@H](C)O)C(=O)NCC(=O)N[C@H](C(=O)N[C@@H](Cc1ccc(O)cc1)C(=O)O)CSSC[C@H](NC(=O)[C@H](Cc1ccc(O)cc1)NC(=O)[C@H](CCC(=O)O)NC3=O)C(=O)N2 [linaclotide, Linaclotide] (H-CCEYCCNPACTGCY-OH; disulfide 1-6, 2-10, 5-13)
Levels seen systemically after oral administration [4]: no detectable levels

C[C@@H]1NC(=O)[C@@H]2CCCN2C(=O)[C@H](CC(N)=O)NC(=O)[C@@H]2CSSC[C@H](N)C(=O)N[C@H]3CSSC[C@H](NC1=O)C(=O)N[C@@H]([C@@H](C)O)C(=O)NCC(=O)N[C@H](C(=O)N[C@@H](Cc1ccc(O)cc1)C(=O)O)CSSC[C@H](NC(=O)[C@H](Cc1ccccc1)NC(=O)[C@H](CCC(=O)O)NC3=O)C(=O)N2 [Peptide 2, CCEFCCNPACTGCY] (H-CCEFCCNPACTGCY-OH; disulfide 1-6, 2-10, 5-13)
Ratio Ki pH 8/Ki pH 5 (GC-C [1]): 0.97 | Ratio EC50 pH 8/EC50 pH 5 (GC-C [2]): 13.2 | pH sensitivity with regard to binding and/or activation of GC-C (GC-C [2]): little or no pH sensitivity | Rate of HCO3- accumulation [3]: 80 neq/min/cm | Rate of fluid accumulation [3]: 2.0 µL/min/cm | ED50 in the gastrointestinal transit assay (female CD-1 mice): 2.06 µg/kg

CC(C)C[C@@H]1NC(=O)[C@H](CCC(=O)O)NC(=O)[C@@H]2CSSC[C@@H]3NC(=O)[C@H](C)NC(=O)[C@@H]4CCCN4C(=O)[C@H](CC(N)=O)NC(=O)[C@H](CSSC[C@H](N)C(=O)N2)NC(=O)[C@H](CSSC[C@@H](C(=O)N[C@@H](Cc2ccc(O)cc2)C(=O)O)NC(=O)CNC(=O)[C@H]([C@@H](C)O)NC3=O)NC1=O [Peptide 1, CCELCCNPACTGCY] (H-CCELCCNPACTGCY-OH; disulfide 1-6, 2-10, 5-13 (inferred); N-terminus and C-terminus assumed)
Ratio Ki pH 8/Ki pH 5 (GC-C [1]): 0.69 | Ratio EC50 pH 8/EC50 pH 5 (GC-C [2]): 8.5 | pH sensitivity with regard to binding and/or activation of GC-C (GC-C [2]): little or no pH sensitivity | Rate of HCO3- accumulation [3]: 80 neq/min/cm | Rate of fluid accumulation [3]: 2.0 µL/min/cm | ED50 in the gastrointestinal transit assay (female CD-1 mice): 0.43 µg/kg
